{"source": "paper PMC9481570", "about": "“A small molecule antagonist of SMN disrupts the interaction between SMN and RNAP II” (Nature Communications, 2022)", "assay_in_all_cases": "Affinity-purification and mass spectrometry (AP-MS) chemical proteomics, all proteins;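 for Difference: 200 µM free competitor with 20 µM biotin probe overnight in lysate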", "type_in_all_cases": "binding", "key": {"[1]": {"molecular_target": "T1, proteins displaced from immobilized biotin-Cmpd 1 pulldowns (U2OS cell lysate) (Homo sapiens, UniProt O15213)", "T1 construct": "endogenous in cells; host or cells: U2OS", "T1 sequence (O15213 whole entry)": "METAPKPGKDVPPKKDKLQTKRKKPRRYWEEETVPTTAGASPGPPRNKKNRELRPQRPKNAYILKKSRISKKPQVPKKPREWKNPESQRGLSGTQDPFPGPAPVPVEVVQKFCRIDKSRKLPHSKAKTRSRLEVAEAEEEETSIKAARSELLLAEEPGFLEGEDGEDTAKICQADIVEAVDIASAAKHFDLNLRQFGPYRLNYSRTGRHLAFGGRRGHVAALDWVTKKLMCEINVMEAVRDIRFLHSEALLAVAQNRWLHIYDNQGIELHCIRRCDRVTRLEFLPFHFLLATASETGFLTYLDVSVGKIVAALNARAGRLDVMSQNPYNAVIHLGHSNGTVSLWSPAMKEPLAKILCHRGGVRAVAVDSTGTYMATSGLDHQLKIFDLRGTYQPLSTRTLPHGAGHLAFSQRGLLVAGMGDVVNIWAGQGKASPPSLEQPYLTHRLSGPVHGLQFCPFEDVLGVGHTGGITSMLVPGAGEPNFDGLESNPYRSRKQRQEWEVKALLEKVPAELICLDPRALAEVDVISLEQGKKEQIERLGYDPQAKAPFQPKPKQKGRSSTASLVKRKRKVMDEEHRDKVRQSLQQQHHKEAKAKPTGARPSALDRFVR", "conditions": "GN=WDR46 (O15213)"}, "[2]": {"molecular_target": "T2, proteins displaced from immobilized biotin-Cmpd 1 pulldowns (U2OS cell lysate) (Homo sapiens, UniProt P25789)", "T2 construct": "endogenous in cells; host or cells: U2OS", "T2 sequence (P25789 whole entry)": "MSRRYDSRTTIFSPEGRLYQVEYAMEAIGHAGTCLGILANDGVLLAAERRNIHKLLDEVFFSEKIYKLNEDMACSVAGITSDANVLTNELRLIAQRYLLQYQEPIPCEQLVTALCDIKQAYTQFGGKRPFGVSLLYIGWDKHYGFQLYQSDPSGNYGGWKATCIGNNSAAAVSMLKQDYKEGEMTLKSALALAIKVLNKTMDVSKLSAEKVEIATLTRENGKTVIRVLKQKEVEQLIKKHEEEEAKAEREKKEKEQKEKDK", "conditions": "GN=PSMA4 (P25789)"}, "[3]": {"molecular_target": "T3, proteins displaced from immobilized biotin-Cmpd 1 pulldowns (U2OS cell lysate) (Homo sapiens, UniProt P56537)", "T3 construct": "endogenous in cells; host or cells: U2OS", "conditions": "GN=EIF6 (P56537)"}, "[4]": {"molecular_target": "T4, proteins displaced from immobilized biotin-Cmpd 1 pulldowns (U2OS cell lysate) (Homo sapiens, UniProt P62910)", "T4 construct": "endogenous in cells; host or cells: U2OS", "conditions": "GN=RPL32 (P62910)"}, "[5]": {"molecular_target": "T5, proteins displaced from immobilized biotin-Cmpd 1 pulldowns (U2OS cell lysate) (Homo sapiens, UniProt Q13765)", "T5 construct": "endogenous in cells; host or cells: U2OS", "conditions": "GN=NACA (Q13765)"}, "[6]": {"molecular_target": "T6, proteins displaced from immobilized biotin-Cmpd 1 pulldowns (U2OS cell lysate) (Homo sapiens, UniProt Q6PK04)", "T6 construct": "endogenous in cells; host or cells: U2OS", "T6 sequence (Q6PK04 whole entry)": "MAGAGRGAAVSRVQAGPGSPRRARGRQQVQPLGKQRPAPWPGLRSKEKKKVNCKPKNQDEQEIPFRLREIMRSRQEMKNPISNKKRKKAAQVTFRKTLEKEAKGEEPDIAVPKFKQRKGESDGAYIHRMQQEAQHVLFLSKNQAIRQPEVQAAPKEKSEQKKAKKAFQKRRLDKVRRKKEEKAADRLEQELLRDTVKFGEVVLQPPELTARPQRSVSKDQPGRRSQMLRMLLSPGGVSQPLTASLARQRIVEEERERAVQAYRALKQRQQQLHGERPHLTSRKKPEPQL", "conditions": "GN=CCDC137 (Q6PK04)"}, "[7]": {"molecular_target": "T7, proteins displaced from immobilized biotin-Cmpd 1 pulldowns (U2OS cell lysate) (Homo sapiens, UniProt Q6ZVX7)", "T7 construct": "endogenous in cells; host or cells: U2OS", "T7 sequence (Q6ZVX7 whole entry)": "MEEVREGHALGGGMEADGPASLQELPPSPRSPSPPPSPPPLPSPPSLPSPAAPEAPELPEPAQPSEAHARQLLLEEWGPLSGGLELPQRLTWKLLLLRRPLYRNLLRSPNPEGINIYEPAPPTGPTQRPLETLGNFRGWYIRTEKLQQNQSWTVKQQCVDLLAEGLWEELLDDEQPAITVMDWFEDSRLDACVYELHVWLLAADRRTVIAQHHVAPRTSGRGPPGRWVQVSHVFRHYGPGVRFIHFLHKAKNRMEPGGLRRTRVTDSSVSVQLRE", "conditions": "GN=NCCRP1 (Q6ZVX7)"}, "[8]": {"molecular_target": "T8, proteins displaced from immobilized biotin-Cmpd 1 pulldowns (U2OS cell lysate) (Homo sapiens, UniProt Q7Z2W4)", "T8 construct": "endogenous in cells; host or cells: U2OS", "T8 sequence (Q7Z2W4 whole entry)": "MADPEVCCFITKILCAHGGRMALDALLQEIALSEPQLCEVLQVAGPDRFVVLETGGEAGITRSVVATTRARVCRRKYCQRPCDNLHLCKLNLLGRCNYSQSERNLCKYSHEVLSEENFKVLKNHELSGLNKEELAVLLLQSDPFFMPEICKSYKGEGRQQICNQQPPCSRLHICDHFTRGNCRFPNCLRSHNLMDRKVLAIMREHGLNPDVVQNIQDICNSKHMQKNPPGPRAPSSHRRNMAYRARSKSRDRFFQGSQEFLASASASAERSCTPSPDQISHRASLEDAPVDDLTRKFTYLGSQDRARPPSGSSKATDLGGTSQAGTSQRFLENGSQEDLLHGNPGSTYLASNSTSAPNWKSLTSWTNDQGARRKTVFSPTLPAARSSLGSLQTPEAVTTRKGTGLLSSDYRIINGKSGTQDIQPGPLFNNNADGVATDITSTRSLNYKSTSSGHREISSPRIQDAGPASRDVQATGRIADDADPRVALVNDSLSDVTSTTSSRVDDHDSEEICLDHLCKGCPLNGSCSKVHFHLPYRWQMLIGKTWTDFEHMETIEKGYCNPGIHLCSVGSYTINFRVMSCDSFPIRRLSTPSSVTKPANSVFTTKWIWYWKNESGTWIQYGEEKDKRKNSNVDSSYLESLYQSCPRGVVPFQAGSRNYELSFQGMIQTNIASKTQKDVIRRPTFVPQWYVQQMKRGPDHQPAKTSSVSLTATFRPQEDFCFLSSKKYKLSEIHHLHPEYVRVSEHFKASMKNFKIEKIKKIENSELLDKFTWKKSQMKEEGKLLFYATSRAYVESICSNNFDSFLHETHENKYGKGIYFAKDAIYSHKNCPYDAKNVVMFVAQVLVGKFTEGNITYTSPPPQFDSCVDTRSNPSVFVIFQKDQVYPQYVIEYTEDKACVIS", "conditions": "GN=ZC3HAV1 (Q7Z2W4)"}, "[9]": {"molecular_target": "T9, proteins displaced from immobilized biotin-Cmpd 1 pulldowns (U2OS cell lysate) (Homo sapiens, UniProt Q9BSJ8)", "T9 construct": "endogenous in cells; host or cells: U2OS", "T9 sequence (Q9BSJ8 whole entry)": "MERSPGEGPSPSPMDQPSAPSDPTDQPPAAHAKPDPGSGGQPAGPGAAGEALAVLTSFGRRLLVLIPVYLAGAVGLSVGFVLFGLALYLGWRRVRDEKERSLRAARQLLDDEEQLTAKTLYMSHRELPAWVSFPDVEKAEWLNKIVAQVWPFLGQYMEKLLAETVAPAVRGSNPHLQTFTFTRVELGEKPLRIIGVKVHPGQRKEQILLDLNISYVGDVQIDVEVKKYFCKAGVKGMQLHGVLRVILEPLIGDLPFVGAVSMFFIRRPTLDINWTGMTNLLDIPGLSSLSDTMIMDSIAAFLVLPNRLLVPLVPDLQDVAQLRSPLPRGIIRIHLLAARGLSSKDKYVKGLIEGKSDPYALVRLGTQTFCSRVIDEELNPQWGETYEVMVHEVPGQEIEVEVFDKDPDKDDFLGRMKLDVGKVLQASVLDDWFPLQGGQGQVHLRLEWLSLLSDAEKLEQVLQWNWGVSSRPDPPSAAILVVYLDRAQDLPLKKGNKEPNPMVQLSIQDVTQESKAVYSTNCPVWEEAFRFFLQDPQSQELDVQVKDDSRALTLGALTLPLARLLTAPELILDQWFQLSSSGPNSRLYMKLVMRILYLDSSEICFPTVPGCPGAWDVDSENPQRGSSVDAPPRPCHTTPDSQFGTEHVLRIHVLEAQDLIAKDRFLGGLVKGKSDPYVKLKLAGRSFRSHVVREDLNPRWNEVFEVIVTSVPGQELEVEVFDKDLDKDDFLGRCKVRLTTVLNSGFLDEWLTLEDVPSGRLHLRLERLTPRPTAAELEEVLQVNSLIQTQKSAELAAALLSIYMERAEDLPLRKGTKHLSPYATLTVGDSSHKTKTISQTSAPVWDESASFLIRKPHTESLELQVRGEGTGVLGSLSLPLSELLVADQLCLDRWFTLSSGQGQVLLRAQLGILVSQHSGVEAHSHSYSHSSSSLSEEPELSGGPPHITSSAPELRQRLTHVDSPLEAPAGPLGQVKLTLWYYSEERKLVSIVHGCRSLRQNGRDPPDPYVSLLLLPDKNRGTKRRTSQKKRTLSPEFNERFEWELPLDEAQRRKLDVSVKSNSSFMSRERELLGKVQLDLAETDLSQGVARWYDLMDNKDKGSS", "conditions": "GN=ESYT1 (Q9BSJ8)"}, "[10]": {"molecular_target": "T10, proteins displaced from immobilized biotin-Cmpd 1 pulldowns (U2OS cell lysate) (Homo sapiens, UniProt Q9BYD6)", "T10 construct": "endogenous in cells; host or cells: U2OS", "conditions": "GN=MRPL1 (Q9BYD6)"}}, "note": "Values joined by “and” are separate entries in the source; they are usually repeats but may differ in a detail not shown here. Identical values can stand only once."}
{"compound": "Cn1c2c(c(=N)c3c1CCC3)CCC2", "note": "[Compound 1, 4-methyl-2,3,4,5,6,7-hexahydrodicyclopenta[b,e]pyridin-8(1H)-imine]", "values": [{"measurement": "Difference", "setting": "[1]; Cmpd minus DMSO, -LOG(P-value) 1.25579", "value": -1.697}, {"measurement": "iBAQ Cmpd", "setting": "[1]; replicates 1-3", "value": "17.4002 and 17.0091 and 16.4289"}, {"measurement": "Difference", "setting": "[2]; Cmpd minus DMSO, -LOG(P-value) 1.07686", "value": -2.957}, {"measurement": "iBAQ Cmpd", "setting": "[2]; replicates 1-3", "value": "18.482 and 14.8891 and 15.1338"}, {"measurement": "Difference", "setting": "[3]; Cmpd minus DMSO, -LOG(P-value) 0.868477", "value": -1.064}, {"measurement": "iBAQ Cmpd", "setting": "[3]; replicates 1-3", "value": "20.5029 and 19.445 and 19.2006"}, {"measurement": "Difference", "setting": "[4]; Cmpd minus DMSO, -LOG(P-value) 0.742167", "value": 3.21}, {"measurement": "iBAQ Cmpd", "setting": "[4]; replicates 1-3", "value": "19.3082 and 19.1191 and 19.5272"}, {"measurement": "Difference", "setting": "[5]; Cmpd minus DMSO, -LOG(P-value) 0.904761", "value": 3.386}, {"measurement": "iBAQ Cmpd", "setting": "[5]; replicates 1-3", "value": "21.59 and 20.9827 and 19.5819"}, {"measurement": "Difference", "setting": "[6]; Cmpd minus DMSO, -LOG(P-value) 1.1923", "value": 2.593}, {"measurement": "iBAQ Cmpd", "setting": "[6]; replicates 1-3", "value": "19.0065 and 18.1463 and 18.0423"}, {"measurement": "Difference", "setting": "[7]; Cmpd minus DMSO, -LOG(P-value) 1.30206", "value": -3.138}, {"measurement": "iBAQ Cmpd", "setting": "[7]; replicates 1-3", "value": "15.2988 and 15.7784 and 15.638"}, {"measurement": "Difference", "setting": "[8]; Cmpd minus DMSO, -LOG(P-value) 1.54428", "value": 1.228}, {"measurement": "iBAQ Cmpd", "setting": "[8]; replicates 1-3", "value": "18.1805 and 17.0719 and 17.7662"}, {"measurement": "Difference", "setting": "[9]; Cmpd minus DMSO, -LOG(P-value) 2.56654", "value": 4.81}, {"measurement": "iBAQ Cmpd", "setting": "[9]; replicates 1-3", "value": "19.5229 and 18.9864 and 18.8876"}, {"measurement": "Difference", "setting": "[10]; Cmpd minus DMSO, -LOG(P-value) 1.01314", "value": 3.091}, {"measurement": "iBAQ Cmpd", "setting": "[10]; replicates 1-3", "value": "18.4151 and 17.6221 and 18.5153"}]}
